Among the data in US12295936B2, “Immunomodulating urea azalides” (Zoetis Services LLC, priority 2020, dated 2025) are MIC values, retold here.

Each structure is given as a SMILES string.

In the experiment the test system is BRD pathogens, M. haemolytica and P. multocida. Put plainly: MIC screening panel of BRD pathogens (antibacterial / non-antibacterial). The following applies: read-out: antibacterial / non-antibacterial (MIC for the BRD pathogens).
As to `CCCN(C[C@]1(O)[C@H](C)O[C@@H](O[C@H]2[C@H](C)[C@@H](O[C@@H]3O[C@H](C)C[C@H](N(C)C(=O)N(C)c4ccccc4)[C@H]3O)[C@](C)(O)C[C@@H](C)CN[C@H](C)[C@@H](O)[C@](C)(O)[C@@H](CC)OC(=O)[C@@H]2C)C[C@@]1(C)OC)C(=O)N(C)c1ccccc1` [Example H-63, 1-((2S,3R,4S,6R)-2-(((2R,3S,4R,5R,8R,10R,11R,12S,13S,14R)-2-ethyl-3,4,10-trihydroxy-13-(((2R,4R,5S,6S)-5-hydroxy-4-methoxy-4,6-dimethyl-5-((3-methyl-3-phenyl-1-propylureido)methyl)tetrahydro-2H-pyran-2-yl)oxy)-3,5,8,10,12,14-hexamethyl-15-oxo-1-oxa-6-azacyclopentadecan-11-yl)oxy)-3-hydroxy-6-methyltetrahydro-2H-pyran-4-yl)-1,3-dimethyl-3-phenylurea], the MIC was above 64 µg/mL.

Take `CC[C@H]1OC(=O)[C@H](C)[C@@H](O[C@H]2C[C@@](C)(OC)[C@](O)(CNCCS(C)(=O)=O)[C@H](C)O2)[C@H](C)[C@@H](O[C@@H]2O[C@H](C)C[C@H](N(C)C(=O)N(C)c3ccccc3)[C@H]2O)[C@](C)(O)C[C@@H](C)CN[C@H](C)[C@@H](O)[C@]1(C)O` [Example H-21, 1-((2S,3R,4S,6R)-2-(((2R,3S,4R,5R,8R,10R,11R,12S,13S,14R)-2-ethyl-3,4,10-trihydroxy-13-(((2R,4R,5S,6S)-5-hydroxy-4-methoxy-4,6-dimethyl-5-(((2-(methylsulfonyl)ethyl)amino)methyl)tetrahydro-2H-pyran-2-yl)oxy)-3,5,8,10,12,14-hexamethyl-15-oxo-1-oxa-6-azacyclopentadecan-11-yl)oxy)-3-hydroxy-6-methyltetrahydro-2H-pyran-4-yl)-1,3-dimethyl-3-phenylurea]: the MIC was above 64 µg/mL. On to `CCCNC[C@]1(O)[C@H](C)O[C@@H](O[C@H]2[C@H](C)[C@@H](O[C@@H]3O[C@H](C)C[C@H](N(C)C(=O)N(C)c4cccnn4)[C@H]3O)[C@](C)(O)C[C@@H](C)CN[C@H](C)[C@@H](O)[C@](C)(O)[C@@H](CC)OC(=O)[C@@H]2C)C[C@@]1(C)OC` [Example H-48, 1-((2S,3R,4S,6R)-2-(((2R,3S,4R,5R,8R,10R,11R,12S,13S,14R)-2-ethyl-3,4,10-trihydroxy-13-(((2R,4R,5S,6S)-5-hydroxy-4-methoxy-4,6-dimethyl-5-((propylamino)methyl)tetrahydro-2H-pyran-2-yl)oxy)-3,5,8,10,12,14-hexamethyl-15-oxo-1-oxa-6-azacyclopentadecan-11-yl)oxy)-3-hydroxy-6-methyltetrahydro-2H-pyran-4-yl)-1,3-dimethyl-3-(pyridazin-3-yl)urea], for which the MIC is above 64 µg/mL.

`CC[C@H]1OC(=O)[C@H](C)[C@@H](O[C@H]2C[C@@](C)(OC)[C@@H](O)[C@H](C)O2)[C@H](C)[C@@H](O[C@@H]2O[C@H](C)C[C@H](N(C)C(=O)Nc3ccc(C#N)cc3)[C@H]2O)[C@](C)(O)C[C@@H](C)CN(C)[C@H](C)[C@@H](O)[C@]1(C)O` [Example B-12, 3-(4-cyanophenyl)-1-((2S,3R,4S,6R)-2-(((2R,3S,4R,5R,8R,10R,11R,12S,13S,14R)-2-ethyl-3,4,10-trihydroxy-13-(((2R,4R,5S,6S)-5-hydroxy-4-methoxy-4,6-dimethyltetrahydro-2H-pyran-2-yl)oxy)-3,5,6,8,10,12,14-heptamethyl-15-oxo-1-oxa-6-azacyclopentadecan-11-yl)oxy)-3-hydroxy-6-methyltetrahydro-2H-pyran-4-yl)-1-methylurea]: the MIC was above 64 µg/mL. Under `CC[C@H]1OC(=O)[C@H](C)[C@@H](O)[C@H](C)[C@@H](O[C@@H]2O[C@H](C)C[C@H](N(C)C(=O)N(C)c3ccccc3)[C@H]2O)[C@](C)(O)C[C@@H](C)CN[C@H](C)[C@@H](O)[C@]1(C)O` [Example A-26, 1-((2S,3R,4S,6R)-2-(((2R,3S,4R,5R,8R,10R,11R,12S,13S,14R)-2-ethyl-3,4,10,13-tetrahydroxy-3,5,8,10,12,14-hexamethyl-15-oxo-1-oxa-6-azacyclopentadecan-11-yl)oxy)-3-hydroxy-6-methyltetrahydro-2H-pyran-4-yl)-1,3-dimethyl-3-phenylurea] stands above 64 µg/mL. As to `CCCN1C[C@H](C)C[C@@](C)(O)[C@H](O[C@@H]2O[C@H](C)C[C@H](N(C)C(=O)N(C)c3ccc(C(F)(F)F)cc3)[C@H]2O)[C@@H](C)[C@H](O[C@H]2C[C@@](C)(OC)[C@@H](O)[C@H](C)O2)[C@@H](C)C(=O)O[C@H](CC)[C@@](C)(O)[C@H](O)[C@H]1C` [Example B-14, 1-((2S,3R,4S,6R)-2-(((2R,3S,4R,5R,8R,10R,11R,12S,13S,14R)-2-ethyl-3,4,10-trihydroxy-13-(((2R,4R,5S,6S)-5-hydroxy-4-methoxy-4,6-dimethyltetrahydro-2H-pyran-2-yl)oxy)-3,5,8,10,12,14-hexamethyl-15-oxo-6-propyl-1-oxa-6-azacyclopentadecan-11-yl)oxy)-3-hydroxy-6-methyltetrahydro-2H-pyran-4-yl)-1,3-dimethyl-3-(4-(trifluoromethyl)phenyl)urea], the MIC is above 64 µg/mL.

In the case of `CC[C@H]1OC(=O)[C@H](C)[C@@H](O)[C@H](C)[C@@H](O[C@@H]2O[C@H](C)C[C@H](N(C)C(=O)Nc3cccc(F)c3)[C@H]2O)[C@](C)(O)C[C@@H](C)CN[C@H](C)[C@@H](O)[C@]1(C)O` [Example A-20, 1-((2S,3R,4S,6R)-2-(((2R,3S,4R,5R,8R,10R,11R,12S,13S,14R)-2-ethyl-3,4,10,13-tetrahydroxy-3,5,8,10,12,14-hexamethyl-15-oxo-1-oxa-6-azacyclopentadecan-11-yl)oxy)-3-hydroxy-6-methyltetrahydro-2H-pyran-4-yl)-3-(3-fluorophenyl)-1-methylurea], the MIC was above 64 µg/mL.

`CC[C@H]1OC(=O)[C@H](C)[C@@H](O)[C@H](C)[C@@H](O[C@@H]2O[C@H](C)C[C@H](N(C)C(=O)Nc3cccc(C)c3)[C@H]2O)[C@](C)(O)C[C@@H](C)CN[C@H](C)[C@@H](O)[C@]1(C)O` [Example A-25, 1-((2S,3R,4S,6R)-2-(((2R,3S,4R,5R,8R,10R,11R,12S,13S,14R)-2-ethyl-3,4,10,13-tetrahydroxy-3,5,8,10,12,14-hexamethyl-15-oxo-1-oxa-6-azacyclopentadecan-11-yl)oxy)-3-hydroxy-6-methyltetrahydro-2H-pyran-4-yl)-1-methyl-3-(m-tolyl)urea]: the MIC was above 64 µg/mL. On to `CCCNC[C@]1(O)[C@H](C)O[C@@H](O[C@H]2[C@H](C)[C@@H](O[C@@H]3O[C@H](C)C[C@H](N(C)C(=O)N(C)c4ccc(O)cc4)[C@H]3O)[C@](C)(O)C[C@@H](C)CN[C@H](C)[C@@H](O)[C@](C)(O)[C@@H](CC)OC(=O)[C@@H]2C)C[C@@]1(C)OC` [Example H-99, 1-((2S,3R,4S,6R)-2-(((2R,3S,4R,5R,8R,10R,11R,12S,13S,14R)-2-ethyl-3,4,10-trihydroxy-13-(((2R,4R,5S,6S)-5-hydroxy-4-methoxy-4,6-dimethyl-5-((propylamino)methyl)tetrahydro-2H-pyran-2-yl)oxy)-3,5,8,10,12,14-hexamethyl-15-oxo-1-oxa-6-azacyclopentadecan-11-yl)oxy)-3-hydroxy-6-methyltetrahydro-2H-pyran-4-yl)-3-(4-hydroxyphenyl)-1,3-dimethylurea], for which the MIC is above 64 µg/mL.

`CCCNC[C@]1(O)[C@H](C)O[C@@H](O[C@H]2[C@H](C)[C@@H](O[C@@H]3O[C@H](C)C[C@H](N(C)C(=O)N(c4ccccc4)C(C)C)[C@H]3O)[C@](C)(O)C[C@@H](C)CN[C@H](C)[C@@H](O)[C@](C)(O)[C@@H](CC)OC(=O)[C@@H]2C)C[C@@]1(C)OC` [Example H-17, 1-((2S,3R,4S,6R)-2-(((2R,3S,4R,5R,8R,10R,11R,12S,13S,14R)-2-ethyl-3,4,10-trihydroxy-13-(((2R,4R,5S,6S)-5-hydroxy-4-methoxy-4,6-dimethyl-5-((propylamino)methyl)tetrahydro-2H-pyran-2-yl)oxy)-3,5,8,10,12,14-hexamethyl-15-oxo-1-oxa-6-azacyclopentadecan-11-yl)oxy)-3-hydroxy-6-methyltetrahydro-2H-pyran-4-yl)-3-isopropyl-1-methyl-3-phenylurea]: the MIC is above 64 µg/mL. Under `CCOC[C@]1(O)[C@H](C)O[C@@H](O[C@H]2[C@H](C)[C@@H](O[C@@H]3O[C@H](C)C[C@H](N(C)C(=O)Nc4ccccc4)[C@H]3O)[C@](C)(O)C[C@@H](C)CN[C@H](C)[C@@H](O)[C@](C)(O)[C@@H](CC)OC(=O)[C@@H]2C)C[C@@]1(C)OC` [Example C-1, 1-((2S,3R,4S,6R)-2-(((2R,3S,4R,5R,8R,10R,11R,12S,13S,14R)-13-(((2R,4R,5S,6S)-5-(ethoxymethyl)-5-hydroxy-4-methoxy-4,6-dimethyltetrahydro-2H-pyran-2-yl)oxy)-2-ethyl-3,4,10-trihydroxy-3,5,8,10,12,14-hexamethyl-15-oxo-1-oxa-6-azacyclopentadecan-11-yl)oxy)-3-hydroxy-6-methyltetrahydro-2H-pyran-4-yl)-1-methyl-3-phenylurea] stands above 64 µg/mL; under `CCCN(C[C@]1(O)[C@H](C)O[C@@H](O[C@H]2[C@H](C)[C@@H](O[C@@H]3O[C@H](C)C[C@H](N(C)C(=O)Nc4ccc(F)cc4)[C@H]3O)[C@](C)(O)C[C@@H](C)CN[C@H](C)[C@@H](O)[C@](C)(O)[C@@H](CC)OC(=O)[C@@H]2C)C[C@@]1(C)OC)C(=O)Nc1ccc(F)cc1` [Example H-10, 1-((2S,3R,4S,6R)-2-(((2R,3S,4R,5R,8R,10R,11R,12S,13S,14R)-2-ethyl-13-(((2R,4R,5S,6S)-5-((3-(4-fluorophenyl)-1-propylureido)methyl)-5-hydroxy-4-methoxy-4,6-dimethyltetrahydro-2H-pyran-2-yl)oxy)-3,4,10-trihydroxy-3,5,8,10,12,14-hexamethyl-15-oxo-1-oxa-6-azacyclopentadecan-11-yl)oxy)-3-hydroxy-6-methyltetrahydro-2H-pyran-4-yl)-3-(4-fluorophenyl)-1-methylurea], above 64 µg/mL.
